The text below walks through data of paper PMC10818921, “Validation of Liquid Chromatography Coupled with Tandem Mass Spectrometry for the Determination of 12 Tyrosine Kinase Inhibitors (TKIs) and Their Application to Therapeutic Drug Monitoring in Adult and Pediatric Populations” (Pharmaceutics, 2023).

The structures appear in SMILES notation. Where two headings read alike, the source gives them in different places.

Series [1] is described as follows: Stability of TKI methanolic solutions, 7 days at −20 °C. The class given is physicochemical. As to conditions: for bias, stability of TKI methanolic solutions: QCs made with 7-day-old methanolic solutions; for storage of methanolic working solutions: −20 °C for 7 days. The method, then: To evaluate TKI stability in methanolic solutions, the four QC levels were realized with seven-day-old solutions and were analyzed six times. The accuracy and precision of the samples have to be in conformity with less than 15% variation.

The nature of series [2]: Therapeutic drug monitoring: steady-state residual plasma concentrations by LC-MS/MS. In kind it is in vivo, human. Conditions: for Concentration range CI 95% / IQR / Mean concentration / Median concentration: residual plasma concentration at steady state; for comparison of dose–weight-adjusted concentrations between adult and pediatric groups: Mann–Whitney test, p-value < 0.0001 where significant. Here is the method: For each calibration sample, an adapted volume of working solution was added and evaporated. Then, 150 µL of IS methanolic solution was added to 50 µL of plasma sample (blank plasma for calibration sample or patient plasma) to precipitate proteins. After vortex mixing and 10 min of centrifugation, the supernatant was transferred into injection vials, and 10 µL was injected into the chromatographic system.
Chromatography was performed on a Dionex Ultimate 3000 Pump (ThermoFisher, les Ulis, France) using a Kinetex C18 Polar column (100 × 2.1 mm, 2.6 µm particle size) heated at 40 °C. The mobile phase A was made with 2 mM of ammonium formate in 0.1% formic acid in ultra-pure water and stored at +4 °C for a maximum of one week. […] The gradient was set as follows: 10 to 40% of B from 0 to 1 min, then 40 to 90% of B in 1 min, and keeping this for 2 min before resetting to 10% B in 1 min. An equilibration time of one minute at 10% mobile phase B at the end of the chromatographic run allowed the column to be equilibrated before the next analysis.
The compounds were detected using an Altis® triple quadrupole tandem mass spectrometer (ThermoFisher Scientific, Les Ulis, France) equipped with an electrospray ionization (ESI) source set in positive ionization mode with a potential of +3.5 kV. Nitrogen was used as cladding and auxiliary gas at a pressure of 30 and 10 arbitrary units (AU), respectively. The collision gas, argon, was used at a pressure of 1.5 mTorr. The temperature of the ion transfer capillary was set at 350 °C. Data were collected in multiple reaction monitoring mode (MRM) with two transitions (m/z) per compound. Xcalibur® (v 4.2.47) and LC Quan® (v 2.7.0) software (ThermoFisher Scientific) were used for data acquisition and processing.
The study was conducted in accordance with the Declaration of Helsinki and approved by the local ethics committee.
Populations treated with each TKI are described in Table 4.
Blood samples were collected in a steady state (i.e., a minimum of 2 weeks after the initiation of therapy or dose adjustment) just prior to dosing. The samples were collected in lithium heparin tubes without a separator and were immediately centrifuged, decanted, and frozen at −20 °C before LC-MS/MS analysis.
A Mann–Whitney […] was performed to compare dose–weight-adjusted concentrations between adult and pediatric groups. Results are illustrated in box-and-whiskers plots. GraphPad Prism v.8.3.0 Software (San Diego, CA, USA) was used to process and visualize data.

For series [3] the following is noted: cited from earlier work.
The conditions of series [4]: cited from earlier work; for Target Concentrations, Cmax / Target Concentrations, Cmin: adults.
For series [5] the following is noted: cited from earlier work. This is another data set of the same source.

Consider `C=CC(=O)Nc1cc(Nc2nccc(-c3c[nH]c4ccccc34)n2)c(OC)cc1N(C)CCN(C)C` [AZ5104], for which, in series [1], the “bias, stability of TKI methanolic solutions” value (shortened to “bias, stability”) is listed as not below 15% and the “storage of methanolic working solutions” value is listed as “must be prepared extemporaneously”. Also, in series [2] (adults), the “Dose–weight-adjusted mean concentration” value worked out at 25.8 ng/mL/mg/kg, the “Dose–weight-adjusted median concentration” value is reported as 21.7 ng/mL/mg/kg, the “Concentration range CI 95%” value is “[16–56] ng/mL” and the IQR entry was “[11–47] ng/mL”. Further, in series [2] (adults), the Mean concentration was determined as 32 ng/mL and the Median concentration is recorded as 25 ng/mL.

In the case of `CCc1cc2c(cc1N1CCC(N3CCOCC3)CC1)C(C)(C)c1[nH]c3cc(C#N)ccc3c1C2=O` [Alectinib, alectinib], in series [2] (adults), the “Dose–weight-adjusted mean concentration” value is 17.3 ng/mL/mg/kg, the “Dose–weight-adjusted median concentration” value stood at 16.7 ng/mL/mg/kg, the “Concentration range CI 95%” value was “[292–424] ng/mL” and the IQR entry is “[302–408] ng/mL”. Also, in series [2] (adults), the Mean concentration worked out at 358 ng/mL and the Median concentration came to 346 ng/mL.

Turning to `Cn1cnc2c(F)c(Nc3ccc(Br)cc3F)c(C(=O)NOCCO)cc21` [Binimetinib, binimetinib], the “frozen stability in plasma” value in series [3] is reported as “at least 30 days”. The “comparison of dose–weight-adjusted concentrations between adult and pediatric groups” value (“comparison” for short) in series [2] was “higher concentrations of binimetinib in adults”. Besides, in series [2] (adults), the “Dose–weight-adjusted mean concentration” value is recorded as 48.8 ng/mL/mg/kg, the “Dose–weight-adjusted median concentration” value was found to be 41.6 ng/mL/mg/kg, the “Concentration range CI 95%” value is “[51–64] ng/mL” and the IQR result is “[38–69] ng/mL”. In series [2] (adults), this molecule displayed a Mean concentration of 57.4 ng/mL and a Median concentration of 52 ng/mL. Also, in series [2] (children), the “Dose–weight-adjusted mean concentration” value is 17.5 ng/mL/mg/kg, the “Dose–weight-adjusted median concentration” value amounted to 14.6 ng/mL/mg/kg, the “Concentration range CI 95%” value was “[37–204] ng/mL” and the IQR entry was “[62–143] ng/mL”. In series [2] (children), this molecule had a Mean concentration of 120 ng/mL and a Median concentration of 100 ng/mL. Moreover, the “Target Concentrations, Cmax” value in series [4] is “Cmax = 654 ng/mL”.

Take `O=C(c1ccc(F)c(F)c1Nc1ccc(I)cc1F)N1CC(O)([C@@H]2CCCCN2)C1` [Cobimetinib, cobimetinib]: in series [3] (−40 °C), the stable in plasma result is given as “more than 20 weeks”. Also, the “comparison” value in series [2] is reported as “not statistically different”. For the same molecule, in series [2] (adults), the “Dose–weight-adjusted mean concentration” value is listed as 145.7 ng/mL/mg/kg, the “Dose–weight-adjusted median concentration” value is recorded as 138.1 ng/mL/mg/kg, the “Concentration range CI 95%” value is “[24–94] ng/mL” and the IQR result is “[46.5–83] ng/mL”. For the same molecule, in series [2] (adults), the Mean concentration was determined as 59.3 ng/mL and the Median concentration worked out at 70 ng/mL. Further, in series [2] (children), the “Dose–weight-adjusted mean concentration” value came to 85.4 ng/mL/mg/kg, the “Dose–weight-adjusted median concentration” value is 62.6 ng/mL/mg/kg, the “Concentration range CI 95%” value was “[74–118] ng/mL” and the IQR result is “[34–114] ng/mL”. In series [2] (children), this molecule gave a Mean concentration of 96.3 ng/mL and a Median concentration of 64.3 ng/mL. The “Target Concentrations, Cmax” value in series [4] is “Cmax = 270 ng/mL”.

Consider `C[C@@H](Oc1cc(-c2cnn(C3CCNCC3)c2)cnc1N)c1c(Cl)ccc(F)c1Cl` [Crizotinib, crizotinib], for which, in series [1], the “bias, stability” value was not below 15% and the “storage of methanolic working solutions” value is given as “must be prepared extemporaneously”. In addition, the “stability at −20 °C for 7 days” value in series [1] (methanolic solutions, CQ3) is “not stable”. The stability in plasma result in series [3] is reported as “minimum of one month”. The “Target Concentrations, Cmin” value in series [4] is “Cmin ≥ 235 ng/mL”.

Turning to `CC(C)(C)c1nc(-c2cccc(NS(=O)(=O)c3c(F)cccc3F)c2F)c(-c2ccnc(N)n2)s1` [Dabrafenib, dabrafenib], in series [3] (−40 °C), the stable in plasma entry is “more than 20 weeks”. Further, the adverse effects described entry in series [5] is “Skin disorders (acneiform eruptions and rash)”. Besides, the “comparison” value in series [2] is listed as “not statistically different”. Moreover, in series [2] (adults), the “Dose–weight-adjusted mean concentration” value is 28.3 ng/mL/mg/kg, the “Dose–weight-adjusted median concentration” value was found to be 14 ng/mL/mg/kg, the “Concentration range CI 95%” value is “[88–122] ng/mL” and the IQR entry was “[29–114] ng/mL”. Moreover, in series [2] (adults), the Mean concentration came to 105.3 ng/mL and the Median concentration is given as 53.5 ng/mL. In addition, in series [2] (children), the “Dose–weight-adjusted mean concentration” value was 62.3 ng/mL/mg/kg, the “Dose–weight-adjusted median concentration” value came out at 19.1 ng/mL/mg/kg, the “Concentration range CI 95%” value was “[26–178] ng/mL” and the IQR entry was “[15–131] ng/mL”. In series [2] (children), this molecule returned a Mean concentration of 102.3 ng/mL and a Median concentration of 18.4 ng/mL. Moreover, in series [4], the “Target Concentrations, Cmin” value is “Cmin ≥ 15 ng/mL”.

In the case of `COC(=O)N[C@@H](C)CNc1nccc(-c2cn(C(C)C)nc2-c2cc(Cl)cc(NS(C)(=O)=O)c2F)n1` [Encorafenib, encorafenib], in series [3], the “frozen stability in plasma” value is “at least 30 days”. Further, in series [2] (adults), the “Dose–weight-adjusted mean concentration” value was 3.4 ng/mL/mg/kg, the “Dose–weight-adjusted median concentration” value is 2.6 ng/mL/mg/kg, the “Concentration range CI 95%” value was “[16–21] ng/mL” and the IQR result was “[10–22] ng/mL”. Also, in series [2] (adults), the Mean concentration is given as 18.6 ng/mL and the Median concentration is recorded as 15 ng/mL. Also, the “Target Concentrations, Cmax” value in series [4] was “Cmax = 3100 ng/mL”.

On to `C[C@H]1Oc2cc(cnc2N)-c2c(nn(C)c2C#N)CN(C)C(=O)c2ccc(F)cc21` [Lorlatinib, lorlatinib], for which the stable in plasma result in series [3] (−30 °C) is given as “at least 2 months”. The “Target Concentrations, Cmax” value in series [4] is reported as “Cmax = 575 ng/mL”.

Turning to `C=CC(=O)Nc1cc(Nc2nccc(-c3cn(C)c4ccccc34)n2)c(OC)cc1N(C)CCN(C)C` [Osimertinib, osimertinib], in series [1], the “bias, stability” value is not below 15% and the “storage of methanolic working solutions” value is “must be prepared extemporaneously”. Also, the stability in plasma entry in series [3] is reported as “minimum of one month”. Also, in series [2] (adults), the “Dose–weight-adjusted mean concentration” value was 196.7 ng/mL/mg/kg, the “Dose–weight-adjusted median concentration” value came to 211.4 ng/mL/mg/kg, the “Concentration range CI 95%” value was “[122–320] ng/mL” and the Mean concentration was determined as 221 ng/mL. Besides, in series [2] (adults), the Median concentration is 207 ng/mL. Besides, in series [4] (40 mg dosage), the “Target Concentrations, Cmin” value is reported as not below 90 ng/mL. Also, the “Target Concentrations, Cmin” value in series [4] (80 mg dosage) is recorded as not below 160 ng/mL.

For the molecule `CC(=O)Nc1cccc(-n2c(=O)n(C3CC3)c(=O)c3c(Nc4ccc(I)cc4F)n(C)c(=O)c(C)c32)c1` [Trametinib, trametinib], the serum stability in series [3] (−20 °C) was 20 months. Also, the toxicity reported result in series [5] (children treated for glioma) was “signs of cutaneous toxicity”. Besides, in series [5], the adverse effects described result was “Skin disorders (acneiform eruptions and rash)”. For the same molecule, the “comparison” value in series [2] is reported as “significantly lower in the adult group than in the pediatric group”. In series [2] (adults), the “Dose–weight-adjusted mean concentration” value came to 443.8 ng/mL/mg/kg, the “Dose–weight-adjusted median concentration” value stood at 386.3 ng/mL/mg/kg, the “Concentration range CI 95%” value is “[11–13] ng/mL” and the IQR result is “[8–14] ng/mL”. In series [2] (adults), the Mean concentration worked out at 12.4 ng/mL and the Median concentration turned out to be 11 ng/mL. Further, in series [2] (children), the “Dose–weight-adjusted mean concentration” value is recorded as 578.4 ng/mL/mg/kg, the “Dose–weight-adjusted median concentration” value was determined as 538.5 ng/mL/mg/kg, the “Concentration range CI 95%” value is “[11–14] ng/mL” and the IQR result was “[6.5–17] ng/mL”. For the same molecule, in series [2] (children), the Mean concentration is 12.6 ng/mL and the Median concentration is listed as 9.7 ng/mL. Moreover, in series [4], the “Target Concentrations, Cmin” value was “Cmin ≥ 10.6 ng/mL” and the minimum effective concentrations was 10 ng/mL.
